Measurements as given in patent publication US20160362416A1, “ANTIVIRAL COMPOUNDS” (Gilead Sciences, Inc., priority 2012, published 2016).

Experiments:
[1] = tested on: NS5A chimeric genotype 1b Con1 replicon with genotype 4a ED43 strain NS5A gene; assay: HCV genotype 4a NS5A chimeric replicon assay; assay type: cell-based; conditions: Hepatitis C virus, 72 h, read-out: 4a (s) (nM)
Experimental: Evaluation of cell-based anti-HCV activity: Antiviral potency (EC50) was determined using a Renilla luciferase (RLuc)-based HCV replicon reporter assay. To perform the assay for genotype 1 and 2a JFH-1, stable HCV 1a RLuc replicon cells (harboring a dicistronic genotype 1a H77 replicon that encodes a RLuc reporter), stable HCV lb RLuc replicon cells (harboring a dicistronic genotype 1b Conl replicon that encodes a RLuc reporter), or stable HCV 2a JFH-1 Rluc replicon cells (harboring a dicistronic genotype 2a JFH-1 replicon that encodes a RLuc reporter; with L31 present in NS5A) were dispensed into 384-well plates for EC50 assays. To perform the assay for genotype 2a (with M31 present in NS5A) or 2b, NS5A chimeric genotype 2a JFH-1 replicons that encodes a RLuc-Neo reporter and either genotype 2a J6 strain NS5A gene or genotype 2b MD2b-1 strain NS5A gene (both with M31 present) respectively, were either transiently transfected (t) into Huh-Lunet cells or were established as stably replicating replicon cells (s) is provided. Either cells were dispensed into 384-well plates for EC50 assays. To perform the assay for genotype 3 and 4, NS5A chimeric genotype 1b Conl replicons that encodes a Pi-RLuc reporter and either genotype 3a S52 strain NS5A gene or genotype 4a ED43 strain NS5A gene respectively, […], which were subsequently dispensed into 384-well plates. Compounds were dissolved in DMSO at a concentration of 10 mM and diluted in DMSO either manually or using an automated pipeting instrument. Serially 3-fold diluted compounds were either manually mixed with cell culture media and added to the seeded cells or directly added to the cells using an automated instrument. DMSO was used as a negative (solvent; no inhibition) control, and the protease inhibitor ITMN-191 was included at a concentration >100×EC50 as a positive control. 72 hours later, cells were lysed and Renilla luciferase activity quantified as recommended by the manufacturer (Promega-Madison, Wis.). Non-linear regression was performed to calculate EC50 values.

[2] = tested on: stable HCV 2a JFH-1 Rluc replicon cells (L31 present in NS5A); assay: HCV genotype 2a JFH-1 RLuc replicon reporter assay; assay type: cell-based; conditions: Hepatitis C virus, 72 h, read-out: 2a JFH (nM)
Experimental: (§1) Evaluation of cell-based anti-HCV activity: Antiviral potency (EC50) was determined using a Renilla luciferase (RLuc)-based HCV replicon reporter assay. To perform the assay for genotype 1 and 2a JFH-1, stable HCV 1a RLuc replicon cells (harboring a dicistronic genotype 1a H77 replicon that encodes a RLuc reporter), stable HCV lb RLuc replicon cells (harboring a dicistronic genotype 1b Conl replicon that encodes a RLuc reporter), or stable HCV 2a JFH-1 Rluc replicon cells (harboring a dicistronic genotype 2a JFH-1 replicon that encodes a RLuc reporter; with L31 present in NS5A) were dispensed into 384-well plates for EC50 assays. To perform the assay for genotype 2a (with M31 present in NS5A) or 2b, NS5A chimeric genotype 2a JFH-1 replicons that encodes a RLuc-Neo reporter and either genotype 2a J6 strain NS5A gene or genotype 2b MD2b-1 strain NS5A gene (both with M31 present) respectively, were either transiently transfected (t) into Huh-Lunet cells or were established as stably replicating replicon cells (s) is provided. Either cells were dispensed into 384-well plates for EC50 assays. To perform the assay for genotype 3 and 4, NS5A chimeric genotype 1b Conl replicons that encodes a Pi-RLuc reporter and either genotype 3a S52 strain NS5A gene or genotype 4a ED43 strain NS5A gene respectively, were transiently transfected (t) into Huh-Lunet cells, which were subsequently dispensed into 384-well plates. Compounds were dissolved in DMSO at a concentration of 10 mM and diluted in DMSO either manually or using an automated pipeting instrument. Serially 3-fold diluted compounds were either manually mixed with cell culture media and added to the seeded cells or directly added to the cells using an automated instrument. DMSO was used as a negative (solvent; no inhibition) control, and the protease inhibitor ITMN-191 was included at a concentration >100×EC50 as a positive control. 72 hours later, cells were lysed and Renilla luciferase activity quantified as recommended by the manufacturer (Promega-Madison, Wis.). Non-linear regression was performed to calculate EC50 values.

[3] = tested on: NS5A chimeric genotype 2a JFH-1 replicon with genotype 2a J6 strain NS5A gene (M31); assay: HCV genotype 2a J6 NS5A chimeric replicon assay, transient (t); assay type: cell-based; conditions: Hepatitis C virus, 72 h, read-out: 2a J6 (t) (nM)
Experimental: as §1

[4] = tested on: NS5A chimeric genotype 1b Con1 replicon with genotype 3a S52 strain NS5A gene; assay: HCV genotype 3a NS5A chimeric replicon assay; assay type: cell-based; conditions: Hepatitis C virus, 72 h, read-out: 3a (nM)
Experimental: as §1

[5] = tested on: NS5A chimeric genotype 2a JFH-1 replicon with genotype 2b MD2b-1 strain NS5A gene (M31); assay: HCV genotype 2b NS5A chimeric replicon assay, stable (s); assay type: cell-based; conditions: Hepatitis C virus, 72 h, read-out: 2b (s) (nM)
Experimental: as §1

[6] = tested on: Y93H in genotype 1a NS5A replicon; assay: Resistance mutant replicon assay, genotype 1a NS5A Y93H; assay type: cell-based, HCV; conditions: Hepatitis C virus, read-out: 1a Y93H (nM)
Experimental: as §1
(§2) To determine the antiviral potency (EC50) against resistance mutants, resistance mutations, including M28T, Q30R, Q30H, Q30E, L31M, Y93C, Y93H, and Y93N in genotype 1a NS5A, Y93H and L31V/Y93H in genotype 1b NS5A, and Y93H for in genotype 3a NS5A, were introduced individually into either 1a Pi-Rluc or 1b Pi-Rluc replicons by site directed mutagenesis. Replicon RNA of each resistant mutant was transiently transfected into Huh-7-derived cured-51 cells and antiviral potency was determined on these transfected cells as described above.

[7] = tested on: stable HCV 1b RLuc replicon cells (genotype 1b Con1 replicon); assay: HCV genotype 1b RLuc replicon reporter assay; assay type: cell-based; conditions: Hepatitis C virus; stable genotype 1b Con1 RLuc replicon cells, 72 hours
Experimental: as §1

[8] = tested on: Y93H in genotype 3a NS5A replicon; assay: Resistance mutant replicon assay, genotype 3a NS5A Y93H; assay type: cell-based, HCV; conditions: Hepatitis C virus, read-out: 3a Y93H (nM)
Experimental: as §1, §2

[9] = tested on: stable HCV 1a RLuc replicon cells (genotype 1a H77 replicon); assay: HCV genotype 1a RLuc replicon reporter assay; assay type: cell-based; conditions: Hepatitis C virus; stable genotype 1a H77 RLuc replicon cells, 72 hours
Experimental: as §1

[10] = tested on: Y93N in genotype 1a NS5A replicon; assay: Resistance mutant replicon assay, genotype 1a NS5A Y93N; assay type: cell-based, HCV; conditions: Hepatitis C virus, read-out: 1a Y93N (nM)
Experimental: as §1, §2

Row | Compound | EC50 [1] [nM] | EC50 [2] [nM] | EC50 [3] [nM] | EC50 [4] [nM] | EC50 [5] [nM] | EC50 [6] [nM] | EC50 [7] [nM] | EC50 [8] [nM] | EC50 [9] [nM] | EC50 [10] [nM]
1 | COC(=O)N[C@H](C(=O)N1[C@@H](C)CC[C@H]1c1ncc(-c2ccc3c(c2)COc2cc4c(ccc5nc([C@@H]6C[C@@H]7CCC[C@@H]7N6C(=O)[C@@H](NC(=O)OC)C6C[C@@H](C)O[C@H](C)C6)[nH]c54)cc2-3)[nH]1)C(C)C (stereo partly drawn) [Example AX, methyl {(2S)-1-[(2S,5S)-2-(5-{2-[(2S,3aS,6aS)-1-{(2S)-2-[(2R,6R)-2,6-dimethyltetrahydro-2H-pyran-4-yl]-2-[(methoxycarbonyl)amino]acetyl}octahydrocyclopenta[b]pyrrol-2-yl]-1,11-dihydroisochromeno[4′,3′:6,7]naphtho[1,2-d]imidazol-9-yl}-1H-imidazol-2-yl)-5-methylpyrrolidin-1-yl]-3-methyl-1-oxobutan-2-yl}carbamate] | 0.01 | 0.012 | 0.046 | 0.015 | 0.027 | 0.48 | 0.022 | 4.97 | 0.017 | 0.885
2 | COC(=O)N[C@H](C(=O)N1[C@@H](c2nc3ccc4cc5c(cc4c3[nH]2)OCc2cc(-c3cnc([C@@H]4C[C@H](C)[C@H](C)N4C(=O)[C@@H](NC(=O)OC)C4C[C@@H](C)O[C@H](C)C4)[nH]3)ccc2-5)C[C@@H](C)[C@H]1C)C1C[C@@H](C)O[C@H](C)C1 (stereo partly drawn) [Example BA, Methyl {(1S)-1-[(2R,6R)-2,6-dimethyltetrahydro-2H-pyran-4-yl]-2-[(2R,3R,5R)-5-(9-{2-[(2S,4S,5S)-1-{(2S)-2-[(2R,6R)-2,6-dimethyltetrahydro-2H-pyran-4-yl]-2-[(methoxycarbonyl)amino]acetyl}-4,5-dimethylpyrrolidin-2-yl]-1H-imidazol-5-yl}-1,11-dihydroisochromeno[4′,3′:6,7]naphtho[1,2-d]imidazol-2-yl)-2,3-dimethylpyrrolidin-1-yl]-2-oxoethyl}carbamate] | 0.108 | 0.086 |  | 0.231 | 0.202 | 0.359 | 0.061 | 40.6 | 0.169 | 0.496
3 | COC[C@H]1C[C@@H](c2nc3ccc4cc5c(cc4c3[nH]2)OCc2cc(-c3cnc([C@@H]4CC[C@H](C)N4C(=O)[C@@H](NC(=O)OC)C4C[C@@H](C)O[C@H](C)C4)[nH]3)ccc2-5)N(C(=O)[C@@H](NC(=O)OC)C2C[C@@H](C)O[C@H](C)C2)C1 (stereo partly drawn) [Example BD, methyl {(1S)-1-[(2R,6R)-2,6-dimethyltetrahydro-2H-pyran-4-yl]-2-[(2S,5S)-2-(5-{2-[(2S,4S)-1-{(2S)-2-[(2R,6R)-2,6-dimethyltetrahydro-2H-pyran-4-yl]-2-[(methoxycarbonyl)amino]acetyl}-4-methoxymethylpyrrolidin-2-yl]-1,11-dihydroisochromeno[4′,3′:6,7]naphtho[1,2-d]imidazol-9-yl}-1H-imidazol-2-yl)-5-methylpyrrolidin-1-yl]-2-oxoethyl}carbamate] | 0.029 | 0.017 |  | 0.072 | 0.026 | 0.088 | 0.096 | 0.814 | 0.06 | 0.104
4 | CC[C@H](C)[C@H](NC(=O)OC)C(=O)N1[C@@H](C)CC[C@H]1c1ncc(-c2ccc3c(c2)COc2cc4c(cc2-3)CCc2nc([C@@H]3CC[C@H](C)N3C(=O)[C@@H](NC(=O)OC)C3C[C@@H](C)O[C@H](C)C3)[nH]c2-4)[nH]1 (stereo partly drawn) [Example BE, methyl{(2S,3S)-1-[(2S,5S)-2-(5-{2-[(2S,5S)-1-{(2S)-2-[(2R,6R)-2,6-dimethyltetrahydro-2H-pyran-4-yl]-2-[(methoxycarbonyl)amino]acetyl}-5-methylpyrrolidin-2-yl]-1,4,5,11-tetrahydroisochromeno[4′,3′:6,7]naphtho[1,2-d]imidazol-9-yl}-1H-imidazol-2-yl)-5-methylpyrrolidin-1-yl]-3-methyl-1-oxopentan-2-yl}carbamate] | 0.011 | 0.011 |  | 0.022 | 0.029 | 0.755 | 0.019 | 2.25 | 0.017 | 1.42
5 | COC(=O)N[C@H](C(=O)N1[C@@H](C)CC[C@H]1c1ncc(-c2ccc3c(c2)COc2cc4c(cc2-3)CCc2nc([C@@H]3CC[C@H](C)N3C(=O)[C@@H](NC(=O)OC)C3C[C@@H](C)O[C@H](C)C3)[nH]c2-4)[nH]1)C1C[C@@H](C)O[C@H](C)C1 (stereo partly drawn) [Example BF, methyl {(1S)-1-[(2R,6R)-2,6-dimethyltetrahydro-2H-pyran-4-yl]-2-[(2S,5S)-2-(9-{2-[(2S,5S)-1-{(2S)-2-[(2R,6R)-2,6-dimethyltetrahydro-2H-pyran-4-yl]-2-[(methoxycarbonyl)amino]acetyl}-5-methylpyrrolidin-2-yl]-1H-imidazol-5-yl}-1,4,5,11-tetrahydroisochromeno[4′,3′:6,7]naphtho[1,2-d]imidazol-2-yl)-5-methylpyrrolidin-1-yl]-2-oxoethyl}carbamate] | 0.025 | 0.021 | 0.035 | 0.065 | 0.042 | 0.035 | 0.049 | 0.365 | 0.048 | 0.125
